These results are taken from ChEMBL document CHEMBL1127880, “1H-1,2,4-triazole angiotensin II receptor antagonists: N-phenylpyridinylmethyl and N-pyridinylphenylmethyl analogs of SC-50560” (Bioorg Med Chem Lett, 1994).

A word on the IC50: it is the point on the concentration scale where inhibition reaches its midpoint. A lower IC50 goes with inhibition by little substance.

For one test, the species on record is Oryctolagus cuniculus. Description: Evaluated for antagonism of AII contracted rabbit aortic rings. In kind it is functional. The settings on record: Aorta, read-out: pA2 (converted).
The target of another test is T1, Angiotensin II receptor (Rattus norvegicus, UniProt P29089+P25095+P35351).
T1 sequence (P29089 whole entry): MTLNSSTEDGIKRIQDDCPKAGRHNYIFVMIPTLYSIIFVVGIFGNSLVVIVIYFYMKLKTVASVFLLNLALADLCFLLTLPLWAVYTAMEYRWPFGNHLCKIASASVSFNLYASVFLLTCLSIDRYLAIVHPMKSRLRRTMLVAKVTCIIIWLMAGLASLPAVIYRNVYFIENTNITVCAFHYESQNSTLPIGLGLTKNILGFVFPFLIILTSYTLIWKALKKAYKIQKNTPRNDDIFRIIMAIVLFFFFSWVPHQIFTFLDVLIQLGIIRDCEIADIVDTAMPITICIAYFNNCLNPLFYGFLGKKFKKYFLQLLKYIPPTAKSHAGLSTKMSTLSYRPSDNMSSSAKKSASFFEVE
T1 sequence (P25095 whole entry): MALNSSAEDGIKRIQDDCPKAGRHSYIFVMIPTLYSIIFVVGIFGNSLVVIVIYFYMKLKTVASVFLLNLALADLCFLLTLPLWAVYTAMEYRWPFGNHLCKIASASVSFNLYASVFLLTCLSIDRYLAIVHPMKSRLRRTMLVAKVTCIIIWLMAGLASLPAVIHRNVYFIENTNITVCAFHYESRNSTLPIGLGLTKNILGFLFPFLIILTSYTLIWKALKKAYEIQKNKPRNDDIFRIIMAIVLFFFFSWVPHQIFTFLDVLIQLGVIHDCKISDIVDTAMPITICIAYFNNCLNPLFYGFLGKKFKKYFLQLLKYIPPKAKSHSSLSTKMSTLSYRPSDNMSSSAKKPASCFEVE
T1 sequence (P35351 whole entry): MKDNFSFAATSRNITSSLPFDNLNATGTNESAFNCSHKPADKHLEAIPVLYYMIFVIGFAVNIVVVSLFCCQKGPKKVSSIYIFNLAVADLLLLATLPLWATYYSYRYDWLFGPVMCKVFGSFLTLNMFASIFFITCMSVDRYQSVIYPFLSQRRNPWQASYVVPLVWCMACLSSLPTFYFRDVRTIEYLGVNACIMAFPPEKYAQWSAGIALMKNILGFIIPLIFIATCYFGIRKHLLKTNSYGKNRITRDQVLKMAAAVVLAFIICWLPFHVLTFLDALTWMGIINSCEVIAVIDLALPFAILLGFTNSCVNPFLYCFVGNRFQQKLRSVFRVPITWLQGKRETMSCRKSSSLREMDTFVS
Put plainly: Tested in vitro for inhibition of [125I]AII to rat uterine membranes. The class given is cell membranes, Membrane.

As to `CCCCc1nc(CCCC)n(Cc2ccc(-c3ccccc3-c3nn[nH]n3)cn2)n1`, the Kb in the test filed under Oryctolagus cuniculus was 10 nM. On Angiotensin II receptor, `CCCCc1nc(CCCC)n(Cc2ccc(-c3ncccc3-c3nn[nH]n3)cc2)n1` came in with an IC50 of 98 nM. For the same molecule, the Kb in the test listed under Oryctolagus cuniculus was 158 nM. Turning to `CCCCc1nc(CCCC)n(Cc2ccc(-c3cnccc3-c3nn[nH]n3)cc2)n1`, on Angiotensin II receptor, the IC50 amounted to 150 nM. Besides, the Kb in the test listed under Oryctolagus cuniculus is 63.1 nM. The molecule `CCCCc1nc(CCCC)n(Cc2ccc(-c3ccncc3-c3nn[nH]n3)cc2)n1` yielded an IC50 on Angiotensin II receptor of 250 nM.

On to `CCCCc1nc(CCCC)n(Cc2ccc(-c3cccnc3-c3nn[nH]n3)cc2)n1`, for which, at Angiotensin II receptor, the IC50 came to 110 nM. For the same molecule, in the test filed under Oryctolagus cuniculus, the Kb was 126 nM.
